Structures can show the parent of a compound that is named as a salt.

In general, IC50 refers to the concentration at which inhibition is half-maximal. What is called inhibition is the relative decrease from the control value, in per cent.

T1 sequence (I3LUI7 19-1212): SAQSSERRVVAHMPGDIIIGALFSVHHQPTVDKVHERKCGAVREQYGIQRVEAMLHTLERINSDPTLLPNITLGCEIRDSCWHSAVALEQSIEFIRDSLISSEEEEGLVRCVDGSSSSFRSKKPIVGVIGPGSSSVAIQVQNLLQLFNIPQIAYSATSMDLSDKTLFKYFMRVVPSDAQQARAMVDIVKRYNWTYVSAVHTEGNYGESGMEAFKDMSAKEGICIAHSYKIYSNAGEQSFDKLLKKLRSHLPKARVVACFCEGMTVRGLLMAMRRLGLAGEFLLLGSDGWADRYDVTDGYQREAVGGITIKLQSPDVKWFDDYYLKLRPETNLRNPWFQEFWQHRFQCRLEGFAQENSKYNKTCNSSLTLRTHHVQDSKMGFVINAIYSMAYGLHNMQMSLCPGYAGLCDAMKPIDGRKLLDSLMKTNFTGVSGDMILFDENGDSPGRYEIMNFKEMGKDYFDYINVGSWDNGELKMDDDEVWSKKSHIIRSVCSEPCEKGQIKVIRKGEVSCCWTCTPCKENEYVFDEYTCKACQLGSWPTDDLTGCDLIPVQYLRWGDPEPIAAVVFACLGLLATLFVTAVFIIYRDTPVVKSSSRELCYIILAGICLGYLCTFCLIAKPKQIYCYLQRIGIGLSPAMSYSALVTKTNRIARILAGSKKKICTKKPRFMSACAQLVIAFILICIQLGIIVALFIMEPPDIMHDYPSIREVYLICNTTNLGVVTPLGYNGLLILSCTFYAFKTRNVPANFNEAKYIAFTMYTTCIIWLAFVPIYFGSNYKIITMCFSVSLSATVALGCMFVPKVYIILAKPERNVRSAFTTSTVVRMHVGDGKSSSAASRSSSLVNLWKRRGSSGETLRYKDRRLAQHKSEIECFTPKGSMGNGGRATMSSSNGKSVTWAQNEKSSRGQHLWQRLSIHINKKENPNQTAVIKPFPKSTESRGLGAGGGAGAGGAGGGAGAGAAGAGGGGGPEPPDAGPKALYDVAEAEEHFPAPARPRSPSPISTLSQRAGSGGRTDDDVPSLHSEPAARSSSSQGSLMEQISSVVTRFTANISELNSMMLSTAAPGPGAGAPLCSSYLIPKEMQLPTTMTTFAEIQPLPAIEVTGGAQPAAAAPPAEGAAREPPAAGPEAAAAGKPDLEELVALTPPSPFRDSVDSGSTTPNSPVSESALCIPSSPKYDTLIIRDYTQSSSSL

One assay addresses T1, mGluR5 receptor (Sus scrofa, UniProt I3LUI7).
T1 construct: 450 μg of protein from brain homogenate with 5 nM ^3[H]-MPEP; from tissue; host or cells: pig brain halves without medulla, cerebellum and pons
Briefly: [3H]-MPEP mGluR5 receptor binding assay (pig brain homogenate). Conditions: 5 nM [3H]-MPEP, read-out: IC50 mGluR5 Receptor (pig) [^3H]-MPEP Bond. As for the experimental part: I. Method for Determining the Inhibition of the [^3H]-MPEP Bond in the mGluR5 Receptor Binding Assay
Pig brain homogenate is produced by homogenizing (Polytron PT 3000, Kinematica AG, 10 000 rpm for 90 seconds) pig brain halves without medulla, cerebellum and pons in pH 8.0 buffer (20 mM Hepes, Sigma, order no. H3375+1 complete tablet, 100 ml, Roche Diagnostics, order no. 1836145) in the ratio of 1:20 (brain weight/volume) and differential centrifuging at 900×g and 40 000×g. In incubation batches of 250 μl in 96-well microtitre plates 450 μg of protein from brain homogenate with 5 nM ^3[H]-MPEP (Tocris, order no. R1212) (MPEP=[…]) and the compounds to be examined (10 μM in test) in buffer (as above) are respectively incubated at room temperature for 60 minutes.
The batches are then filtered using a Brandel cell harvester (Brandel, Robotic 9600) on unifilter plates with fibreglass filter mats (Perkin Elmer, order no. 6005177) and then washed with buffer (as above) 3-times each with 250 μl per sample. The filter plates are then dried for 60 mins. at 55° C. Then, 30 μL of Ultima Gold™ scintillator (Packard BioScience, order no. 6013159) are added per well and after 3 hours the samples are measured on the β-counter (MicroBeta, Perkin Elmer). The non-specific binding is determined by adding 10 μM of MPEP (Tocris, order no. 1212).
For `O=C1CCC(=O)N1Cc1cccc(-c2ccc3ncnc(NC4CC4)c3c2F)c1` [Example 904, 1-(3-(4-(cyclopropylamino)-5-fluoroquinazolin-6-yl)benzyl)pyrrolidine-2,5-dione], the IC50 turned out to be 220 nM.

As to `O=C(CC(F)(F)F)N(Cc1cccc(-c2ccc3ncnc(NC4CC4)c3c2)c1)C1CC1` [Example 205, N-cyclopropyl-N-[3-(4-cyclopropylamino-quinazolin-6-yl)-benzyl]-3,3,3-trifluoro-propionamide; hydrochloride], the IC50 came to 330 nM.

With `CCCCC(=O)N(Cc1cccc(-c2ccc3ncnc(NC4CC4)c3c2)c1)C1CC1` [Example 256, pentanoic acid cyclopropyl-[3-(4-cyclopropylamino-quinazolin-6-yl)-benzyl]-amide], the IC50 is 1470 nM.

As for `CCCCNc1ncnc2ccc(-c3cccc(CN4C(=O)CCC4=O)c3)cc12` [Example 286, 1-(3-(4-(butylamino)quinazolin-6-yl)benzyl)pyrrolidine-2,5-dione hydrochloride], the IC50 stood at 390 nM.

In the case of `CC(=O)N(Cc1cc(C)cc(-c2ccc3ncnc(NC4CC4)c3c2)c1)C1CC1` [Example 239, N-cyclopropyl-N-[3-(4-cyclopropylamino-quinazolin-6-yl)-5-methyl-benzyl]-acetamide], the IC50 was 4120 nM.

For `c1cc(CN(c2nccs2)C2CC2)cc(-c2ccc3ncnc(NC4CC4)c3c2)c1` [Example 892, N-cyclopropyl-N-(3-(4-(cyclopropylamino)quinazolin-6-yl)benzyl)thiazole-2-amine], the IC50 stood at 80 nM.

As to `CN(c1ncnc2ccc(-c3cccc(CN(C(=O)c4ccccn4)C4CC4)c3)cc12)C1CC1` [Example 272, N-cyclopropyl-N-(3-(4-(cyclopropyl(methyl)amino)quinazolin-6-yl)benzyl)picolinamide], the IC50 was 15300 nM.

Still in this assay, the particulars now being: 10 μM compound, 5 nM [3H]-MPEP.
For `Cc1cc2ncnc(NC3CC3)c2cc1-c1cccc(CN(C2CC2)S(=O)(=O)c2c(F)c(F)c(F)c(F)c2F)c1` [Example 675, N-cyclopropyl-N-(3-(4-(cyclopropylamino)-7-methylquinazolin-6-yl)benzyl)-2,3,4,5,6-pentafluorobenzole sulfonamide], the “% Inhibition of mGluR5 Receptor (pig) [^3H]-MPEP Bond at 10 μM” value (“% Inhibition of mGluR5 Receptor (pig)” below) is 48%.

For `CC(C)(C)Nc1ncnc2ccc(-c3ccc(F)c(CN(C(=O)c4ccco4)C4CC4)c3)cc12` [Example 807, N-(5-(4-(tert-butylamino)quinazolin-6-yl)-2-fluorobenzyl)-N-cyclopropyl furan-2-carboxamide], the “% Inhibition of mGluR5 Receptor (pig)” value is reported as 90%.

In the case of `COc1ccc(S(=O)(=O)N(Cc2cccc(-c3cc(F)c4ncnc(NC5CC5)c4c3)c2)C2CC2)cc1` [Example 694, N-cyclopropyl-N-(3-(4-(cyclopropylamino)-8-fluoroquinazolin-6-yl)benzyl)-4-methoxybenzole sulfonamide], the “% Inhibition of mGluR5 Receptor (pig)” value amounted to 82%.

Consider `CC(C)S(=O)(=O)N(Cc1cc(-c2ccc3ncnc(NC(C)(C)C)c3c2)ccc1F)C1CC1` [Example 822, N-(5-(4-(tert-butylamino)quinazolin-6-yl)-2-fluorobenzyl)-N-cyclopropyl propane-2-sulfonamide], for which the “% Inhibition of mGluR5 Receptor (pig)” value was found to be 86%.

Still in this assay, the particulars now being: 10 μM compound, 5 nM [3H]-MPEP, read-out: % Inhibition of mGluR5 Receptor (pig) [^3H]-MPEP Bond at 10 μM.
In the case of `COc1ccc(C(=O)N(Cc2cc(-c3ccc4ncnc(NC5CC5)c4c3)ccc2Cl)C2CC2)cc1OC` [Example 784, N-(2-chloro-5-(4-(cyclopropylamino)quinazolin-6-yl)benzyl)-N-cyclopropyl-3,4-dimethoxybenzamide], the inhibition at 10 µM was found to be 56%.

With `CCCN(Cc1cccc(-c2ccc3ncnc(Nc4ccccc4)c3c2)c1)C(=O)c1ccsc1` [Example 108, thiophene-3-carboxylic acid [3-(4-phenylamino-quinazolin-6-yl)-benzyl]-propyl-amide], the inhibition at 10 µM turned out to be 31%.

For the molecule `O=S(=O)(c1cccc2cccnc12)N(Cc1cccc(-c2cc(F)c3ncnc(NC4CC4)c3c2)c1)C1CC1` [Example 709, N-cyclopropyl-N-(3-(4-(cyclopropylamino)-8-fluoroquinazolin-6-yl)benzyl)quinoline-8-sulfonamide], the inhibition at 10 µM amounted to 36%.

As for `CCCN(Cc1cccc(-c2ccc3ncnc(Nc4ccccc4)c3c2)c1)C(=O)c1ccc(C(F)(F)F)cc1F` [Example 93, 2-fluoro-N-[3-(4-phenylamino-quinazolin-6-yl)-benzyl]-N-propyl-4-trifluoromethyl-benzamide], the inhibition at 10 µM was found to be 38%.

As for `O=C(c1cccs1)N(Cc1cc(-c2ccc3ncnc(NC4CC4)c3c2)ccn1)C1CC1` [Example 811, N-cyclopropyl-N-((4-(4-(cyclopropylamino)quinazolin-6-yl)pyridin-2-yl)methyl)thiophene-2-carboxamide], the inhibition at 10 µM was 71%.

For `CCCCC(=O)N(Cc1cc(-c2ccc3ncnc(NC4CC4)c3c2)ccc1F)C1CC1` [Example 382, N-cyclopropyl-N-(5-(4-(cyclopropylamino)quinazolin-6-yl)-2-fluorobenzyl)pentanamide], the inhibition at 10 µM came to 89%.

Take `N#Cc1ccc(C(=O)N(Cc2cccc(-c3ccc4ncnc(NC5CC5)c4c3)c2)C2CC2)cc1` [Example 161, 4-cyano-N-cyclopropyl-N-[3-(4-cyclopropylamino-quinazolin-6-yl)-benzyl]-benzamide]: the inhibition at 10 µM came out at 96%.

Consider `Cc1ccc(C(=O)N(Cc2ccccc2)Cc2cccc(-c3ccc4ncnc(NC(C)C)c4c3)c2)cc1` [Example 54, N-benzyl-N-[3-(4-isopropylamino-quinazolin-6-yl)-benzyl]-4-methyl-benzamide], for which the inhibition at 10 µM is 47%.

Consider `CCCN(Cc1cccc(-c2ccc3ncnc(Nc4ccccc4)c3c2)c1)C(=O)c1ccco1` [Example 120, furan-2-carboxylic acid [3-(4-phenylamino-quinazolin-6-yl)-benzyl]-propyl-amide], for which the inhibition at 10 µM worked out at 48%.

Turning to `CC(C)(C)Nc1ncnc2ccc(-c3ccc(F)c(CN(C(=O)c4cccc(C(F)(F)F)c4)C4CC4)c3)cc12` [Example 808, N-(5-(4-(tert-butylamino)quinazolin-6-yl)-2-fluorobenzyl)-N-cyclopropyl-3-(trifluoromethyl)benzamide], the inhibition at 10 µM is 81%.

On to `N#CCC(=O)N(Cc1cccc(-c2ccc3ncnc(NC4CC4)c3c2)c1)c1cccnc1` [Example 195, 2-cyano-N-[3-(4-cyclopropylamino-quinazolin-6-yl)-benzyl]-N-pyridin-3-yl-acetamide], for which the inhibition at 10 µM amounted to 40%.

Turning to `CN(C)CC(=O)N(Cc1cccc(-c2cc(F)c3ncnc(NC4CC4)c3c2)c1)C1CC1` [Example 751, N-cyclopropyl-N-(3-(4-(cyclopropylamino)-8-fluoroquinazolin-6-yl)benzyl)-2-(dimethylamino)acetamide], the inhibition at 10 µM is 53%.

Regarding `O=C(c1cccs1)N(Cc1cccc(-c2ccc3ncnc(NC4CC4)c3c2)c1)C1CC1` [Example 178, thiophene-2-carboxylic acid cyclopropyl-[3-(4-cyclopropylamino-quinazolin-6-yl)-benzyl]-amide], the inhibition at 10 µM stood at 84%.

In the case of `O=C(c1ccccc1Cl)N(Cc1cccc(-c2ccc3ncnc(N4CCCC4)c3c2)c1)C1CC1` [Example 143, 2-chloro-N-cyclopropyl-N-[3-(4-pyrrolidin-1-yl-quinazolin-6-yl)-benzyl]-benzamide], the inhibition at 10 µM was 71%.

In the case of `O=C(c1ccno1)N(Cc1cccc(-c2cc(F)c3ncnc(NC4CC4)c3c2)c1)C1CC1` [Example 775, N-cyclopropyl-N-(3-(4-(cyclopropylamino)-8-fluoroquinazolin-6-yl)benzyl)isoxazole-5-carboxamide], the inhibition at 10 µM worked out at 76%.

For `Cc1nc(NC2CC2)c2cc(-c3cccc(CN(C(=O)c4cccc(F)c4)C4CC4)c3)ccc2n1` [Example 509, N-cyclopropyl-N-(3-(4-(cyclopropylamino)-2-methylquinazolin-6-yl)benzyl)-3-fluorobenzamide], the inhibition at 10 µM amounted to 31%.

Turning to `Cc1nc(NC2CC2)c2cc(-c3ccc(F)c(CN(C(=O)c4ccccc4)C4CC4)c3)ccc2n1` [Example 550, N-cyclopropyl-N-(5-(4-(cyclopropylamino)-2-methylquinazolin-6-yl)-2-fluorobenzyl)benzamide], the inhibition at 10 µM turned out to be 40%.

Turning to `CC(NC1CC1)c1cccc(-c2ccc3ncnc(NC4CC4)c3c2)c1` (stereo not drawn) [Example 307, N-cyclopropyl-6-(3-(1-(cyclopropylamino)ethyl)phenyl)quinazoline-4-amine], the inhibition at 10 µM came out at 37%.

The assay is the same for the next values; noted with them: IC50 mGluR5 Receptor (pig) [^3H]-MPEP Bond, 5 nM [3H]-MPEP.
`O=C(CF)N(Cc1cccc(-c2ccc3ncnc(NC4CC4)c3c2)c1)C1CC1` [Example 208, N-cyclopropyl-N-[3-(4-cyclopropylamino-quinazolin-6-yl)-benzyl]-2-fluoro-acetamide] showed an IC50 of 120 nM.

The values above are taken from US20090069320A1, “Substituted 4-Amino-Quinazoline Compounds with Metabotropic Glutamate Receptor Regulating Activity and Uses Thereof” (Gruenenthal GmbH, priority 2006, published 2009).
